Assay results: patent publication US20050164951A1, “Inhibitors for the soluble epoxide hydrolase” (The Regents of the University of California, priority 2003, published 2005)
Entries after “also recorded” stand apart in the source; their conditions may differ.

Key:
human sEH = biological target: T1, human sEH (Homo sapiens, UniProt P34913); assay: Inhibition of recombinant human sEH, IC50 assay with 4-nitrophenyl-trans-2,3-epoxy-3-phenylpropyl carbonate as substrate; format: biochemical; settings: Table 2; […] enzyme, 5 min preincubation, pH 7.4, 30° C.; means ± SD; read-out: IC50 (μM) Human sEH
T1 construct: made in house; host or cells: baculovirus expression system
T1 sequence (P34913 1-555): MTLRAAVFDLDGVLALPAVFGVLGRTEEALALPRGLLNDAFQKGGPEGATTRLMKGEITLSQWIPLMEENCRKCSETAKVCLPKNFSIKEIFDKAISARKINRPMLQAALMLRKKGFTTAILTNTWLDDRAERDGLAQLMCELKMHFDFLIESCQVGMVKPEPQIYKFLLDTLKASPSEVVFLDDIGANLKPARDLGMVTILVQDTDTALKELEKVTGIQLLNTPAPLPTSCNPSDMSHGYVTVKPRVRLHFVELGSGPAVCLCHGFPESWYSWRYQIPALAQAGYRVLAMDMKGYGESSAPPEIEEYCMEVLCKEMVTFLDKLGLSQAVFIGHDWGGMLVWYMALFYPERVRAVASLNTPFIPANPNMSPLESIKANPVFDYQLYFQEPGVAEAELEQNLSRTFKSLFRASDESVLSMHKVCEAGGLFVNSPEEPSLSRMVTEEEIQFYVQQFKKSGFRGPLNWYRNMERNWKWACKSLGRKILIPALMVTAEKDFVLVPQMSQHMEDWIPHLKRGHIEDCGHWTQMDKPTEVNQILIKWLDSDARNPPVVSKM
Method: Assays were performed in triplicate. […] The curve was generated from at least three separate runs, each in triplicate, to obtain the standard deviation (SD) given in Table 1 thru Table 4.

[1] = Cream on index finger of a patient with Raynaud syndrome before cold exposure; format: in vivo, human; settings: cream applied to a finger before cold exposure
Method: The experimental design involved preparing the Vanicream solutions with ethanol with or without active compound, then covering the syringe barrels with aluminum foil. The compounds were applied in a bind fashion approximately 20 minutes before exposure and then the hands were exposed to cold for approximately 30 minutes and the results recorded. The following day the results were decoded. Treatments (left or right index finger) were random. […] The test compounds were dissolved in ethanol at a concentration of 10 mg/mL and this in turn mixed with commercial Vanicream at a 10:1 concentration to give 1 mg/mL final concentration of active ingredient in the Vanicream/ethanol mixture. Approximately 100 μL of cream (±sEH inhibitor) were applied to a single finger. The first two columns indicate that over a range of exposure conditions the results from the left and right […] were similar. […] Since the experiment was run blind, the left and right index fingers were treated in a random fashion. For convenience the treatments are shown on the right in each case. […]

[2] = Pharmacokinetics after oral gavage in mice; format: in vivo, mouse; settings: 5 mg/kg orally
Method: Animals. Male Swiss Webster mice, 6 weeks-old, were obtained from Charles River (Calif., USA). […] The body weight of animals used in all the experiments ranged from 28 g to 38 g. […] Administration and measurement. […] Then the samples were centrifuged at 6000 rpm for 5 min, and the ethyl acetate layer was dried under nitrogen. The residue was reconstituted in 25 μL of methanol, and aliquots (5 μL) were injected onto the LC-MS/MS system. Analysis. Pharmacokinetics analysis was performed using SigmaPlot software system (SPSS science, Chicago, Ill.). […] AUC=a/b Where: • C=the total blood concentration at time t • a=the extrapolated zero intercept b=the apparent first-order elimination rate constant

[3] = Metabolic stability in rat hepatic microsomes with NADPH generating system; format: in vitro ADME; settings: 1 μM, NADPH generating system, FIGS. 6 and 7
Method: FIG. 6 is a graph illustrating the metabolic stabilities of 1-adamantyl-3-dodecyl urea (686) and 1-cyclohexyl-3-dodecyl urea (297) in rat hepatic microsomes. Microsomes were incubated with 1 μM 686 or 297 in the presence of an NADPH generating system. Data are expressed as mean ±SD of triplicate experiments.
To evaluate the metabolic stability of these inhibitors, the microsomal and NADPH dependent metabolism of a number of potent sEH inhibitors was evaluated. […] The first step in the metabolic transformation of the n-alkyl to n-alkanoic acid derivatives is an NAPDH dependent process carried out by cytochrome P450 dependent omega hydroxylation in rodent and human hepatic tissue preparations (see FIG. 8). When in vivo metabolism was evaluated, evidence for the beta-oxidation of the alkanoic acid derivatives was also found (see FIG. 9).

[4] = test system: linoleate and arachidonate derived epoxides and diols; assay: Urinary oxylipins in angiotensin II infused rats; format: in vivo, rat; settings: ANGII infused Sprague-Dawley rats, subcutaneous injection, urine 24 hr post exposure, LC/MS/MS
Source text: In this example, hypertension was induced in one group of Sprague-Dawley rats by the infusion of angiotensin II (ANGII).

[5] = Pharmacokinetics of 687 and 800 in a human subject; format: in vivo; settings: FIG. 11; single oral administration of either 687 or 800 to a human subject
Method: (§1) Serial bled blood samples (3-50 μL) were collected from finger tips into 50 μL heparinized capillary tube at various time points (0.5, 1, 2, 4, 6, 12 and 24 hr) after administration. These samples were used to measure parent compounds and their metabolites using LC-MS/MS as described above for experiments with mice. Blood samples were added 400 μL of distilled water and 25 μL of internal standard (500 ng/mL CTU), and vortexed. The blood samples were then extracted with 500 μL of ethyl acetate twice and the ethyl acetate layer was dried under nitrogen. The residue was reconstituted in 25 μL of methanol, and aliquots (10 μL) were injected onto the LC-MS/MS system as described above. Biological end points came from clinical chemistry samples run at The University of California Davis Clinical Laboratory and a series of 6 inflammatory markers including C reactive protein were run blind at the University of California Davis Department of Nephrology.

[6] = Oral AUDA butyl ester (800) in a patient with end stage renal disease: clinical chemistry, C reactive protein, blood pressure; format: in vivo, human
Method: as §1, with “These” for “Serial bled blood samples (3-50 μL) were collected from finger tips into 50 μL heparinized capillary tube at various time points (0.5, 1, 2, 4, 6, 12 and 24 hr) after administration. These”

[7] = Blood concentration after oral administration of 950 and AUDA-nBE, human pharmacokinetic profile; format: in vivo
Method: FIG. 16 provides a sample preparation procedure for a pharmacokinetic study. A 5 μl whole blood sample was drawn into a capillary at a specific time point, each sample was extracted and anaylzed by LC/MS-MS. […] AUDA is the active metabolite of AUDA-nBE. […] 0.05 mg/kg. (B). 0.1 mg/kg. […] The compounds were administered at the same time in the same formulation. […] 21 mg (0.3 mg/kg) 950 and AUDA-nBE were orally administrated with starch. (B). 7 mg (0.1 mg/kg) formulated 950 and AUDA-NBE were taken with (HPMC, starch and lactose). (C). […] 950 with HPMC and Starch. (B). 950 in lactose and HPMC. […] HPMC forms a gel which slowly erodes; lactose enhances erosion at it moves through the gut and starch retards it. These formulations are combined, ball milled, and then placed in ‘0’ capsule and not compressed.

[8] = format: in vitro ADME, rat and human
Source text: Both rat and human microsomes were used for the 950 metabolism study.

For CCCCCCCCCCCCNC(=O)NC1CCCCC1 [Compound 297, 1-cyclohexyl-3-dodecyl urea, reference compound], the IC50 (human sEH) was 0.14 ± 0.01 µM and the “effect on Raynaud's symptoms” value [1] was “reduces severity of Raynaud's symptoms”.

In the case of O=C(O)CCCCCCCCCCCNC(=O)NC12CC3CC(CC(C3)C1)C2 [Compound 687, 1-(1-adamantyl)-3-(12-dodecanoic acid)urea], the “time to reach the maximum concentration” value [2] is reported as 30 min, the “metabolic stability in microsomal preparations” value [3] is reported as “stable” and the “urinary diol concentrations (DHOMEs, DHETs)” value [4] is reported as “decrease in diol concentrations”. The “urinary epoxides (EpOMEs, EETs)” value [4] was “increase in urinary epoxides” and the “maximum circulating concentration of 687, humans compared with mice” value [5] was “much higher in humans”.

In the case of CCCCOC(=O)CCCCCCCCCCCNC(=O)NC12CC3CC(CC(C3)C1)C2 [Compound 800, 1-(1-Adamantyl)-3-(11-butoxycarbonylundecyl)urea], the “serum profile of regulatory lipids” value ([6]; patient approaching ESRD, brief oral treatment with low doses) is reported as “altered the serum profile of regulatory lipids in a positive manner”, the Creatinine ([6]; same trial, ESRD without drug 5.0, normal 0.5-1.3) is reported as 4.9 mg/dL and the “Cmax” value ([7]; FIG. 23, 7mg each in tristerate (0.1 mg/kg) orally, human) is reported as “rather high Cmax”. For the same compound, the “performance of simple dry formulations” value ([7]; FIG. 26, starch, HPMC/starch/lactose or lactose, 0.1-0.3 mg/kg orally) was “very poorly” and the “absorption depending on formulation” value ([7]; FIGS. 23 and 26, oral, human, listed as AUDA-BE) was “only absorbed efficiently in a lipid formulation; also recorded: bioavailable in lipid formulations”.

For CCOCCOCCOCCCCCNC(=O)NC12CC3CC(CC(C3)C1)C2 [Compound 950], the “T1/2 compared with AUDA-BE” value ([7]; human, in vivo, po, 0.1 mg/kg) was “longer T1/2”, the “pharmacokinetics” value ([7]; in vivo) was “improved pharmacokinetics” and the “major metabolite in vitro” value [8] was “hydroxy metabolite was the major metabolite”.
